Earlier results on one compound are cited in patent US20210386741A1, “FORMULATIONS OF IBRUTINIB” (Zhuhai Beihai Biotech Co., Ltd., priority 2016, published 2021).

For series [1] the following is noted: oral.
In a further series the test system is human plasma protein. To be noted: in vitro, no concentration dependence in the range of 50 to 1000 ng/mL.

The structures appear in SMILES notation.

With `C=CC(=O)N1CCC[C@@H](n2nc(-c3ccc(Oc4ccccc4)cc3)c3c(N)ncnc32)C1` [ibrutinib], the solubility in water entry is “practically insoluble in water”. Moreover, the Absolute bioavailability in series [1] (fasted condition (n=8), 90% CI=2.1−3.9) is listed as 2.9%. The “change of absolute bioavailability when combined with a meal” value in series [1] (with a meal versus fasted) is recorded as “doubled”. Moreover, in series [1] (with food compared with after overnight fasting), the “increase of AUC on administration with food” value is “approximately 2 fold”. Besides, the “reversible binding to human plasma protein” value with human plasma protein is listed as 97.3%.
